In US20100075894A1, “REDUCING ER STRESS IN THE TREATMENT OF OBESITY AND DIABETES” (HARVARD UNIVERSITY, priority 2004, published 2010):

System: mouse embryonic fibroblasts (MEF)
Experiment: tunicamycin ER stress response in MEFs (XBP-1 models)
Type: cell-based
Procedure: ER stress responses in XBP-1s overexpressing cells, XBP-1^−/− cells and their controls. (A) Induction of XBP-1s expression upon removal of doxycycline in mouse embryonic fibroblasts (MEF). (B) Southern blot analysis of XBP-1^−/− MEF cells and their WT controls for the wild type (9.4 kb) and targeted (6.5 kb) alleles. (C) PERK phosphorylation (p-PERK) and JNK activity in the XBP-1s overexpressing cells and their control cells (−Dox and +Dox, respectively) upon tunicamycin treatment (Tun, 2 μg/ml). (D) PERK phosphorylation and JNK activity upon low dose tunicamycin treatment (Tun, 0.5 μg/ml) in XBP-1^−/− MEF cells and their WT controls. (E) IRS-1 Ser307 phosphorylation upon tunicamycin treatment (Tun, 2 μg/ml) in the XBP-1s overexpressing and the control cells (−Dox and +Dox, respectively), detected using immunoprecipitation (IP) of IRS-1 followed by immunoblotting (IB) with an IRS-1 phosphoserine 307-specific antibody. […] The ratio of IRS-1 tyrosine phosphorylation to total IRS-1 level was summarized from independent experiments and was presented in the graph. (G) IRS-1 Ser307 phosphorylation upon tunicamycin treatment (Tun, 0.5 μg/ml) in XBP-1^−/− cells and WT controls was detected as described in […]. […] (H) Insulin-stimulated tyrosine phosphorylation of IRS-1 in XBP-1^−/− and WT control cells with or without tunicamycin treatment (Tun, 0.5 μg/ml). The ratio of IRS-1 tyrosine phosphorylation to total IRS-1 level was summarized from independent experiments and presented in the graph. All graphs show mean±SEM from at least 2 independent experiments and statistically significance from the controls is indicated by * with p<0.005.
The transcription factor XBP-1 is a bZIP protein. The spliced or processed form of XBP-1 (XBP-1s) is a key factor in the transcriptional regulation of molecular chaperones and enhances the compensatory UPR (Calfon et al., Nature 415, 92 (2002); Shen et al., Cell 107:893 (2001); Yoshida et al., Cell 107:881 (2001); Lee et al., Mol. Cell Biol. 23:7448 (2003); each of which is incorporated herein by reference). We therefore reasoned that modulation of XBP-1s levels in cells should alter insulin action via its potential impact on the magnitude of the ER stress responses. To test this possibility, we established XBP-1 gain- and loss-of-function cellular models. First, we established an inducible gene expression system where exogenous XBP-1s is expressed only in the absence of tetracycline/doxycycline (FIG. 13A). In parallel, we also studied MEFs derived from XBP-1^−/− mouse embryos (Lee et al., Mol. Cell Biol. 23, 7448 (2003); A. M. Reimold et al., Genes Dev. 14, 152 (2000); Reimold et al., Nature 412, 300 (2001); each of which is incorporated herein by reference) (FIG. 13B). […] Upon induction of XBP-1s expression, there was a dramatic reduction in both PERK phosphorylation and JNK activation following tunicamycin treatment (FIG. 13C). […] Thus alterations in the levels of cellular XBP-1s protein result in alterations in the ER stress response.
Cells: Rat Fao liver cells were cultured with RPMI 1640 (Gibco, Grand Island, N.Y.) containing 10% fetal bovine serum (FBS). At 70-80% confluency, cells were serum depleted for 12 hours before starting the experiments. Reagents including tunicamycin, thapsigargin, and JNK inhibitors were gently added to the culture dishes in the incubator to prevent any environmental stress. JNK inhibitors were added 1 hour before tunicamycin/thapsigargin treatment. The XBP-1^−/− mouse embryonic fibroblasts (MEF) (A. H. Lee, N. N. Iwakoshi, L. H. Glimcher, Mol. Cell. Biol. 23:7448 (2003); incorporated herein by reference), IRE-1α^−/− MEF cells (kindly provided by Dr. David Ron, New York University School of Medicine), and their wild type controls were cultured in Dulbecco's Modified Eagle Medium (DMEM) (Gibco, Grand Island, N.Y.) containing 10% FBS. A similar protocol was followed for experiments in MEF cells, except that the cells were serum depleted for only 6 hours. […]

[1] = fibroblasts without exogenous XBP-1s expression, 2 μg/ml

tunicamycin was tested, and the ER stress (WT cells, low dose 0.5 μg/ml) was “failed to stimulate significant ER stress”, the ER stress response (XBP-1−/− MEFs, low dose 0.5 μg/ml) was “strong ER stress response” and the PERK phosphorylation [1] was “strong PERK phosphorylation”. The “PERK phosphorylation, peak” value [1] was 3 to 4 h, the “PERK phosphorylation, start” value [1] was 30 min and the “activation of JNK” value [1] was “rapid and robust activation”.
